Test results taken from patent US10640507B2, “PBD antibacterial agents” (KING'S COLLEGE LONDON, priority 2015, dated 2020).
≈ marks a conversion by molar mass, not a printed value.

Experiments:
Assay type in all cases: cell-based
[1] = tested on: E. faecalis VRE NCTC 12201; assay: General MIC protocol, Gram positive panel
Description: (§1) General Minimum Inhibitory Concentration (MIC) Protocol
(§2) 1. Grow up cultures of bacterial strains to be tested overnight.
(§3) 2. Dilute down overnight cultures to concentration of 1×10^6 bacteria/ml (OD0.01) in Tryptic soy broth (TSB).
(§4) 3. Add 100 μl of TSB media to column 2-column 12 in 96 well plate (keeping column 1 clear).
(§5) 4. Make up compound to a concentration of 64 μg/ml in water (or alternatively to twice the chosen maximum concentration to be tested).
(§6) 5. Add 100 μl of antibiotic solution to the 1st and 2nd columns.
(§7) 6. Using a multichannel pipette take 100 μl from the 2nd column wells and pipette into 3rd column wells and repeat down the 96 well plate (remembering to include controls i.e. uninfected media and media with no antibiotic).
(§8) 7. To each well (except uninfected control row H) add 100 μl of bacterially infected media at a concentration of 1×10^6/ml.
(§9) 8. This dilutes down the concentration of the antibiotic by half (top dose is therefore 32 μg/ml in column 1) and also gives you a starting bacterial concentration of 5×10^5/ml.
(§10) 9. Wrap plate with parafilm to prevent evaporation.
(§11) 10. Leave at desired temperature (37° C. unless specified elsewhere) for 20 hours.
(§12) 11. Next day check plates for growth and measure optical density (i.e. absorbance) at a wavelength of 600 nm (OD600).
(§13) An example of such a plate is shown in FIG. 1 where column A represents wells that receive the top dose 100 μl; column B represents wells that receive the top dose 100 μl+100 μl TSB; and column C represents wells that receive 100 μl TSB. Row H which is marked by a box labelled D represents a blank where the cells receive no bacteria.

E. faecalis VSE NCTC 775 = assay: General MIC protocol, Gram positive panel; conditions: Enterococcus faecalis, NCTC775; VSE 775
Description: as §1, §2, §3, §4, §5, §6, §7, §8, §9, §10, §11, §12, §13

[2] = tested on: E. faecium VRE NCTC 12204; assay: General MIC protocol, Gram positive panel
Description: as §1, §2, §3, §4, §5, §6, §7, §8, §9, §10, §11, §12, §13

EMRSA-15 = assay: General MIC protocol, Gram positive panel
Description: as §1, §2, §3, §4, §5, §6, §7, §8, §9, §10, §11, §12, §13

EMRSA-16 = assay: General MIC protocol, Gram positive panel
Description: as §1, §2, §3, §4, §5, §6, §7, §8, §9, §10, §11, §12, §13

[3] = tested on: methicillin sensitive S. aureus ATTC 9144 (NCTC 6571); assay: General MIC protocol, Gram positive panel; conditions: Staphylococcus aureus, MSSA / NCTC 6571; MSSA 9144
Description: as §1, §2, §3, §4, §5, §6, §7, §8, §9, §10, §11, §12, §13

A. baumannii AYE = assay: General MIC protocol, Gram negative; conditions: Acinetobacter baumannii
Description: as §1, §2, §3, §4, §5, §6, §7, §8, §9, §10, §11, §12, §13

A. baumannii NCTC 17978 = assay: General MIC protocol, Gram negative; conditions: Acinetobacter baumannii, NCTC17978
Description: as §1, §2, §3, §4, §5, §6, §7, §8, §9, §10, §11, §12, §13

K. pneumonia M6 = assay: General MIC protocol, Gram negative; conditions: Klebsiella pneumoniae; KP-M6
Description: as §1, §2, §3, §4, §5, §6, §7, §8, §9, §10, §11, §12, §13

K. pneumonia NCTC 13368 = assay: General MIC protocol, Gram negative; conditions: Klebsiella pneumoniae, NCTC13368
Description: as §1, §2, §3, §4, §5, §6, §7, §8, §9, §10, §11, §12, §13

P. aeruginosa NCTC 13437 = assay: General MIC protocol, Gram negative; conditions: Pseudomonas aeruginosa, NCTC13437
Description: as §1, §2, §3, §4, §5, §6, §7, §8, §9, §10, §11, §12, §13

P. aeruginosa PA01 = assay: General MIC protocol, Gram negative; conditions: Pseudomonas aeruginosa, PA01, PA01
Description: as §1, §2, §3, §4, §5, §6, §7, §8, §9, §10, §11, §12, §13

[4] = tested on: HeLa (Cervical cancer cell line); assay: MTT cytotoxicity assay; conditions: Homo sapiens, MTT, 24 h continuous exposure, read-out: IC50 HeLa (Cervical cancer cell line)
Description: (§14) Two immortalised human cell lines, HeLa and WI38 were used for cytotoxicity screening of the compounds. HeLa is a human cervical cancer cell line and WI38 is a normal healthy cell line. The cell lines were obtained from the American Type Culture Collection. The cell-lines were maintained in monolayer culture in 75 cm2 flasks (TPP, Switzerland) under a humidified 5% CO2 atmosphere at 37° C. The HeLa cell line was maintained in Dulbecco's Modified Eagles Media (DMEM; Invitrogen) supplemented with foetal bovine serum (10% v/v; Invitrogen), L-glutamine (2 mM; Invitrogen), non-essential amino acids (1×; Invitrogen) and Penicillin-Streptomycin (1% v/v, Invitrogen). For WI38, Eagle's Minimum Essential Medium, and Penicillin-Streptomycin (1% v/v, Invitrogen) and foetal bovine serum (10%, nvitrogen) was used. For passaging, cells were washed with phosphate buffered saline [PBS] (GIBCO 14040, Invitrogen, UK), incubated with trypsine (GIBCO 25300, Invitrogen, UK), and re-seeded into fresh medium. For seeding, cells were counted using a Neubauer haemocytometer (Assistant, Germany) by microscopy (Nikon, USA) on a non-adherent suspension of cells that were washed in PBS, trypsinised, centrifuged at 8° C. at 8000 rpm for 5 min and re-suspended in fresh medium.
(§15) The cells were grown in normal cell culture conditions at 37° C. under a 5% CO2 humidified atmosphere using appropriate medium. The cell count was adjusted to 10^5 cells/ml/ and 20,000 cells were added per well. The cells were incubated for 24 hours and 1 μl of the appropriate inhibitor concentrations were to the wells in triplicates. After 24 h of continuous exposure to each compound, the cytotoxicity was determined using the MIT (3-(4,5-Dimethylthiazol-2-yl)-2,5-diphenyltetrazolium bromide) (Lancaster Synthesis Ltd, UK) colorimetric assay. Absorbance was quantified by spectrophotometry at λ=570 nm (Envision Plate Reader, PerkinElmer, USA). IC50 values were calculated by a dose-response analysis using the Prism Graphpad Prism® software. The cytotoxicity results are shown below in Table 12.

WI38 (Healthy cell line) = assay: MTT cytotoxicity assay; conditions: Homo sapiens, WI-38; MTT; 24 h continuous exposure; highest concentration tested 20 μM; read-out: IC50 WI38 (Healthy cell line)
Description: as §14, §15

**Q.** What does the source list for CCN(CC)C(=O)c1cc2cc(NC(=O)c3cc(NC(=O)CCCOc4cc5c(cc4OC)C(=O)N4CCC[C@H]4C=N5)cn3C)ccc2o1 [PP-B27, (S)—N-(2-(diethylcarbamoyl)benzofuran-5-yl)-4-(4-((7-methoxy-5-oxo-2,3,5,11a-tetrahydro-1H-benzo[e]pyrrolo[1,2-a][1,4]-diazepin-8-yl)oxy)butanamido)-1-methyl-1H-pyrrole-2-carboxamide]?
**A.** MIC [1]: < 0.125 µg/mL; MIC (E. faecalis VSE NCTC 775): 0.25 µg/mL (≈ 0.374 µM); MIC [2]: < 0.125 µg/mL; MIC (EMRSA-15): 0.25 µg/mL (≈ 0.374 µM); MIC (EMRSA-16): 0.5 µg/mL (≈ 0.748 µM); MIC [3]: < 0.125 µg/mL; MIC (A. baumannii AYE): 4 µg/mL (≈ 5.98 µM); MIC (A. baumannii NCTC 17978): 4 µg/mL (≈ 5.98 µM); MIC (K. pneumonia M6): 8 µg/mL (≈ 12 µM); MIC (K. pneumonia NCTC 13368): 64 µg/mL (≈ 95.7 µM); MIC (P. aeruginosa NCTC 13437): 32 µg/mL (≈ 47.9 µM); MIC (P. aeruginosa PA01): 128 µg/mL (≈ 191 µM); IC50 [4]: > 20 µM; IC50 (WI38 (Healthy cell line)): > 20 µM

**Q.** How did the MIC [1] turn out when COC(=O)c1cc(NC(=O)c2cc3cc(NC(=O)c4cc(NC(=O)CCCOc5cc6c(cc5OC)C(=O)N5CCC[C@H]5C=N6)cn4C)ccc3s2)cn1C [PP-B17, reference compound] was run?
**A.** < 0.125 µg/mL

**Q.** And the MIC (E. faecalis VSE NCTC 775)?
**A.** < 0.125 µg/mL

**Q.** And the MIC [2]?
**A.** < 0.125 µg/mL

**Q.** What about the MIC (EMRSA-15) of the same molecule?
**A.** < 0.125 µg/mL

**Q.** And the MIC (EMRSA-16)?
**A.** 0.25 µg/mL (≈ 0.326 µM)

**Q.** And the MIC [3]?
**A.** < 0.125 µg/mL

**Q.** What about the MIC (A. baumannii AYE) of the same molecule?
**A.** 32 µg/mL (≈ 41.8 µM)

**Q.** And the MIC (A. baumannii NCTC 17978)?
**A.** 8 µg/mL (≈ 10.4 µM)

**Q.** And the MIC (K. pneumonia M6)?
**A.** 128 µg/mL (≈ 167 µM)

**Q.** What about the MIC (K. pneumonia NCTC 13368) of the same molecule?
**A.** 128 µg/mL (≈ 167 µM)

**Q.** And the MIC (P. aeruginosa NCTC 13437)?
**A.** 64 µg/mL (≈ 83.6 µM)

**Q.** And the MIC (P. aeruginosa PA01)?
**A.** 128 µg/mL (≈ 167 µM)

**Q.** Which MIC [1] does the source give for COc1cc2c(cc1OCCCC(=O)Nc1cc(C(=O)Nc3ccc4sc(C(=O)N5CCCCC5)cc4c3)n(C)c1)N=C[C@@H]1CCCN1C2=O [PP-B22, (S)-4-(4-((7-methoxy-5-oxo-2,3,5,11a-tetrahydro-1H-benzo-[e]pyrrolo[1,2-a][1,4]diazepin-8-yl)oxy)butanamido)-1-methyl-N-(2-(piperidine-1-carbonyl)benzo[b]thiophen-5-yl)-1H-pyrrole-2-carboxamide] here?
**A.** < 0.125 µg/mL

**Q.** What about the MIC (E. faecalis VSE NCTC 775) of the same molecule?
**A.** 0.25 µg/mL (≈ 0.359 µM)

**Q.** And the MIC [2]?
**A.** < 0.125 µg/mL

**Q.** And the MIC (EMRSA-15)?
**A.** 0.5 µg/mL (≈ 0.718 µM)

**Q.** What about the MIC (EMRSA-16) of the same molecule?
**A.** 1 µg/mL (≈ 1.44 µM)

**Q.** And the MIC [3]?
**A.** < 0.125 µg/mL

**Q.** And the MIC (A. baumannii AYE)?
**A.** 8 µg/mL (≈ 11.5 µM)

**Q.** And the MIC (A. baumannii NCTC 17978)?
**A.** 8 µg/mL (≈ 11.5 µM)

**Q.** What about the MIC (K. pneumonia M6) of the same molecule?
**A.** 128 µg/mL (≈ 184 µM)

**Q.** What about the MIC (K. pneumonia NCTC 13368) of the same molecule?
**A.** 128 µg/mL (≈ 184 µM)

**Q.** And the MIC (P. aeruginosa NCTC 13437)?
**A.** 64 µg/mL (≈ 91.8 µM)

**Q.** And the MIC (P. aeruginosa PA01)?
**A.** 128 µg/mL (≈ 184 µM)

**Q.** What about the IC50 [4] of the same molecule?
**A.** > 20 µM

**Q.** And the IC50 (WI38 (Healthy cell line))?
**A.** > 20 µM

**Q.** CCN(CC)C(=O)c1cc2cc(NC(=O)c3cc(NC(=O)CCCOc4cc5c(cc4OC)C(=O)N4CCC[C@H]4C=N5)cn3C)ccc2s1 [PP-B28] was tested. Which MIC [1] did it give?
**A.** 0.5 µg/mL (≈ 0.73 µM)

**Q.** And the MIC (E. faecalis VSE NCTC 775)?
**A.** 1 µg/mL (≈ 1.46 µM)

**Q.** And the MIC [2]?
**A.** 1 µg/mL (≈ 1.46 µM)

**Q.** And the MIC (EMRSA-15)?
**A.** 1 µg/mL (≈ 1.46 µM)

**Q.** What about the MIC (EMRSA-16) of the same molecule?
**A.** 4 µg/mL (≈ 5.84 µM)

**Q.** What about the MIC [3] of the same molecule?
**A.** 0.5 µg/mL (≈ 0.73 µM)

**Q.** And the MIC (A. baumannii AYE)?
**A.** 4 µg/mL (≈ 5.84 µM)

**Q.** What about the MIC (A. baumannii NCTC 17978) of the same molecule?
**A.** 4 µg/mL (≈ 5.84 µM)

**Q.** And the MIC (K. pneumonia M6)?
**A.** 8 µg/mL (≈ 11.7 µM)

**Q.** And the MIC (K. pneumonia NCTC 13368)?
**A.** 64 µg/mL (≈ 93.5 µM)

**Q.** What about the MIC (P. aeruginosa NCTC 13437) of the same molecule?
**A.** 32 µg/mL (≈ 46.7 µM)

**Q.** What about the MIC (P. aeruginosa PA01) of the same molecule?
**A.** 128 µg/mL (≈ 187 µM)

**Q.** What about the IC50 [4] of the same molecule?
**A.** > 20 µM

**Q.** What about the IC50 (WI38 (Healthy cell line)) of the same molecule?
**A.** > 20 µM
